Experimental data reported in the supplement of paper PMC10307832.

Assays:
Experiment in all cases: relative viability (nuclei count vs DMSO), 5 days (fraction); higher = more cells survive
BI-2536 + Tozasertib = compound: CC[C@@H]1C(=O)N(C)c2cnc(Nc3ccc(C(=O)NC4CCN(C)CC4)cc3OC)nc2N1C1CCCC1 [BI-2536] + Cc1cc(Nc2cc(N3CCN(C)CC3)nc(Sc3ccc(NC(=O)C4CC4)cc3)n2)n[nH]1 [Tozasertib] (partner 0.1 µM)
How it was run: (§1)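 Relative viability divides the nuclei count in treated wells by that in vehicle wells. Lung cancer cell lines were seeded in 1536-well plates, dosed by pin tool the next day, and fixed and stained after 5 days in one step with final 0.05% Triton X-100, 1% formaldehyde and 1 ug/ml Hoechst. Dosing was a single drug or a fixed anchor-drug dose plus five library-drug doses (not always all listed) in √10 steps, and values are medians of duplicate plates imaged at 4×.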

[1] = compound: CC1CC(=O)N(C2=CN=C(N=C2N1C3CCCC3)NC4=C(C=C(C=C4)C(=O)NC5CCN(CC5)C)OC)C [NPK76-II-72-1] + Nc1ncn([C@H]2C[C@H](O)[C@@H](CO)O2)c(=O)n1 [Decitabine] (partner 2 µM)
How it was run: as §1

[2] = compound: CC1CC(=O)N(C2=CN=C(N=C2N1C3CCCC3)NC4=C(C=C(C=C4)C(=O)NC5CCN(CC5)C)OC)C [NPK76-II-72-1] + C[C@@H](Oc1cc(-c2cnn(C3CCNCC3)c2)cnc1N)c1c(Cl)ccc(F)c1Cl [Crizotinib] (partner 1 µM)
How it was run: as §1

BI-2536 + Vorinostat = compound: CC[C@@H]1C(=O)N(C)c2cnc(Nc3ccc(C(=O)NC4CCN(C)CC4)cc3OC)nc2N1C1CCCC1 [BI-2536] + O=C(CCCCCCC(=O)Nc1ccccc1)NO [Vorinostat] (partner 1 µM)
How it was run: as §1

Cell Line	relative viability (BI-2536 + Tozasertib; first compound 0.01 µM)	relative viability (BI-2536 + Tozasertib; first compound 0.03162 µM)	relative viability (BI-2536 + Tozasertib; first compound 0.1 µM)	relative viability (BI-2536 + Tozasertib; first compound 0.3162 µM)	relative viability (BI-2536 + Tozasertib; first compound 1 µM)	relative viability ([1]; first compound 0.01 µM)	relative viability ([1]; first compound 0.03162 µM)	relative viability ([1]; first compound 0.1 µM)	relative viability ([1]; first compound 0.3162 µM)	relative viability ([1]; first compound 1 µM)	relative viability ([2]; first compound 0.01 µM)	relative viability ([2]; first compound 0.03162 µM)	relative viability ([2]; first compound 0.1 µM)	relative viability ([2]; first compound 0.3162 µM)	relative viability ([2]; first compound 1 µM)	relative viability (BI-2536 + Vorinostat; first compound 0.01 µM)	relative viability (BI-2536 + Vorinostat; first compound 0.03162 µM)	relative viability (BI-2536 + Vorinostat; first compound 0.1 µM)	relative viability (BI-2536 + Vorinostat; first compound 0.3162 µM)	relative viability (BI-2536 + Vorinostat; first compound 1 µM)
NCI-H1666	0.621	0.52	0.415	0.369	0.372	0.809	0.755	0.705	0.713	0.733	0.855	1.03	0.92	0.917	1.09	0.984	1.03	1.03	0.504	0.49
LC-2-ad	0.412	0.278	0.279	0.318	0.383	0.715	0.774	0.809	0.776	0.864	0.449	–	0.453	0.44	0.51	0.63	0.274	0.181	0.198	0.221
SK-LU-1	0.323	0.317	0.323	0.218	0.176	0.626	0.63	0.64	0.582	0.615	0.812	1.07	0.93	0.859	0.981	0.727	0.643	0.271	0.247	0.247
ChaGo-K-1	0.216	0.227	0.219	0.211	0.239	0.487	0.52	0.475	0.512	0.501	1.11	1.18	1.11	1.12	1.19	0.764	0.749	0.265	0.182	0.196
COR-L 105	0.351	0.408	0.299	0.306	0.333	0.622	0.65	0.448	0.616	0.69	0.709	0.899	0.643	0.61	0.979	0.959	0.79	0.52	0.349	0.334
NCI-H1975	0.664	0.673	0.393	0.116	0.0975	0.351	0.375	0.398	0.364	0.391	0.939	0.965	0.914	0.876	0.95	0.727	0.593	0.326	0.181	0.158
NCI-H1993	0.497	0.615	0.609	0.617	0.59	0.604	0.624	0.61	0.474	0.678	0.912	0.839	0.791	0.722	0.977	0.665	0.425	0.456	0.489	0.416
RERF-LC-KJ	0.496	0.405	0.275	0.224	0.226	0.783	0.762	0.82	0.617	0.699	0.808	0.644	0.771	0.728	0.868	0.731	0.531	0.348	0.224	0.255
NCI-H23	0.331	0.458	0.182	0.142	0.141	0.31	0.315	0.264	0.405	0.306	0.544	0.563	–	0.556	0.528	0.527	0.555	0.133	0.133	0.157
HCC-366	0.119	0.169	0.115	0.038	0.0412	0.333	0.381	0.378	0.301	0.373	0.458	0.683	0.694	0.429	0.59	0.336	0.347	0.0476	0.0183	0.0214
EMC-BAC-2	0.302	0.302	0.201	0.212	0.209	0.978	1.01	0.986	0.969	1.08	0.765	0.817	0.658	0.783	0.823	0.468	0.416	0.171	0.144	0.131
NCI-H2405	0.73	0.566	0.381	0.296	0.33	0.74	0.789	0.719	0.629	0.862	0.863	0.951	0.816	0.798	0.855	0.981	0.608	0.35	0.278	0.337
NCI-H358	0.113	0.105	0.103	0.0917	0.0924	0.193	0.215	0.222	–	0.214	0.606	0.604	0.604	0.437	0.651	0.507	0.138	0.0931	0.0884	0.0847
NCI-H1944	0.25	0.268	0.234	0.234	0.195	0.431	0.463	0.408	0.408	0.478	0.985	1.12	1.1	1.01	1.22	0.623	0.623	0.237	0.139	0.154
EPLC-272H	0.187	0.252	0.215	0.148	0.164	0.407	0.387	0.371	0.379	0.37	0.865	0.865	1.02	0.892	0.91	0.339	0.126	0.0766	0.112	0.0972
NCI-H1915	0.486	0.292	0.232	0.171	0.166	0.256	0.257	0.27	0.261	0.278	0.87	0.969	0.874	0.891	0.876	0.464	0.478	0.295	0.0928	0.0626
NCI-H596	0.913	1.12	0.769	0.267	0.247	1.02	1.19	1.01	1	1.01	1	1.04	0.95	1.02	1.05	0.644	0.664	0.551	0.228	0.206
NCI-H322M	0.517	0.451	0.571	0.445	0.377	0.675	0.711	0.714	0.743	0.77	0.968	0.944	0.868	0.873	0.983	0.926	0.829	0.641	0.45	0.422
NCI-H647	0.34	0.433	0.209	0.132	0.103	0.379	0.364	0.418	0.367	0.454	1.06	1.15	–	0.966	1.06	0.526	0.372	0.236	0.086	0.0837
SK-MES-1	0.956	0.801	0.191	0.151	0.172	0.359	0.441	0.434	0.364	0.455	0.967	0.999	1.01	0.956	1.02	1.17	0.934	0.441	0.136	0.188
NCI-H2170	0.713	0.89	0.593	0.177	0.249	0.442	0.447	0.455	0.42	0.511	1.08	1.18	1.11	–	1.3	0.787	0.736	0.159	0.144	0.175
NCI-H2085	0.787	0.737	0.478	0.368	0.438	0.543	0.519	0.517	0.472	0.611	0.864	0.962	1.03	0.778	1.01	0.855	0.77	0.469	0.231	0.304
SW 1573	0.192	0.166	0.159	0.127	0.121	0.508	0.579	0.51	0.649	0.505	0.637	0.891	0.77	0.686	0.912	0.677	0.437	0.101	0.0801	0.113
NCI-H727	0.646	0.695	0.672	0.496	0.392	0.874	0.888	0.801	0.785	0.764	0.703	0.768	0.906	0.668	0.889	1.12	1.11	0.797	0.513	0.4
NCI-H441	0.557	0.352	0.274	0.293	0.31	0.226	0.222	0.233	0.222	0.252	0.928	0.692	0.505	0.7	0.699	0.668	0.601	0.263	0.212	0.178
LOU-NH91	0.694	0.543	0.439	0.34	0.234	0.794	0.849	0.793	0.735	0.875	0.735	0.735	0.693	0.635	0.764	0.915	0.865	0.443	0.311	0.264
NCI-H3122	0.363	0.207	0.266	0.297	0.246	0.361	0.431	0.471	0.424	0.438	0.268	0.272	0.282	0.294	0.329	0.928	0.779	0.179	0.149	0.151
